Data on seven compounds can be found in publication PMC5039624 (Scientific Reports, 2016).

Bridge positions count the residues as written; N and C are the ends. Peptide text beside a SMILES is read from it.

The nature of data set [1]: Liposome centrifugation assay, POPG liposomes. The class given is physicochemical. As to conditions: LUVs extruded through 0.1 μm filters, 10 mM HEPES pH 7.4, 150 mM NaCl; 10 μM toxin, 1 h room temperature, 30 min at 100,000 g; unbound toxin in supernatant by RP-HPLC; fit to partition equilibrium equation. On the procedure: To investigate whether the micelle-binding interface identified by NMR-CSM faithfully reports on the lipid-binding interface of the peptide we used a previously reported liposome centrifugation assay[30] to study the interaction between VSTx1 and phospholipids with different head groups. VSTx1 was incubated with liposomes of different composition, then the liposomes were pelleted using ultracentrifugation and the amount of unbound VSTx1 in the supernatant was determined using reverse-phase (RP) HPLC (Fig. 4a,b). Partition coefficients (Kp) for binding of VSTx1 to liposomes were calculated by fitting to the partition equilibrium equation (see Eqn (3) in Materials and Methods). The Kp for binding to 1-palmitoyl-2-oleoyl-sn-glycero-3-phosphoglycerol (POPG) liposomes was 2.4 × 10^5 while the Kp values for binding to POPC or 1-palmitoyl-2-oleoyl-sn-glycero-3-phosphoethanolamine (POPE) liposomes were close to 0 (both <10^2) (Fig. 4e).
Large unilamellar vesicles (LUVs) were prepared by drying lipids (POPG and/or POPC, 25 mg/mL) under nitrogen gas, drying the lipid pellet under vacuum, and resuspending the lipids by vortexing for 1 h in an aqueous buffer containing 10 mM HEPES pH 7.4, and 150 mM NaCl. Vesicles were extruded 20 times using 0.1 μm polycarbonate filters (Avanti Polar Lipids, Inc.). Aqueous solutions of the toxin (10 μM) were incubated with varying amounts of vesicles for 1 h at room temperature, then the vesicles were centrifuged for 30 min at 100,000 g before the toxin concentration in the aqueous phase was determined. Aqueous concentrations of VSTx1 were quantified by RP-HPLC using a monolithic C18 column (4.6 × 100 mm). The toxin was eluted with a linear gradient of 10–50% solvent B (0.046% TFA in acetonitrile) in solvent A (0.05% TFA in water) over 10 min at a flow rate of 3 ml/min. The partition coefficients (Kp) for the binding of VSTx1 to liposomes were calculated by fitting to the partition equilibrium equation: […]

In data set [2] the target is isolated voltage-sensor domain of the voltage-gated potassium channel KvAP (VSDK), wild type (UniProt Q9YDF8). The data set is described as follows: pull-down.

In the case of `CSCC[C@@H]1NC(=O)[C@H](Cc2ccccc2)NC(=O)[C@H](CCCCN)NC(=O)CNC(=O)[C@@H](NC(=O)[C@H](CCC(=O)O)NC(=O)[C@@H](N)CO)CSSC[C@@H]2NC(=O)[C@@H]3CSSC[C@@H](C(=O)N[C@H](C(=O)N[C@@H](CC(C)C)C(=O)N[C@@H](C)C(=O)N[C@@H](CO)C(=O)N4CCC[C@H]4C(=O)N[C@@H](Cc4ccccc4)C(=O)O)C(C)C)NC(=O)[C@H](Cc4c[nH]c5ccccc45)NC(=O)[C@H](CCCCN)NC(=O)[C@H](Cc4c[nH]c5ccccc45)NC(=O)[C@H](CCCNC(=N)N)NC(=O)[C@H](CO)NC(=O)[C@H](CO)NC(=O)[C@H](CSSC[C@H](NC(=O)[C@H](CCCCN)NC(=O)[C@H](Cc4c[nH]c5ccccc45)NC1=O)C(=O)N[C@@H](CCCCN)C(=O)N[C@@H](CC(N)=O)C(=O)N[C@@H](CO)C(=O)N[C@@H](C)C(=O)N[C@@H](CC(=O)O)C(=O)N3)NC(=O)[C@H](C(C)C)NC(=O)[C@H](CC(C)C)NC(=O)[C@H](CC(=O)O)NC(=O)[C@H](CCCCN)NC2=O` [N13A] (H-SECGKFMWKCKNSADCCKDLVCSSRWKWCVLASPF-OH; disulfide 3-17, 10-22, 16-29), the “Partition coefficient (Kp) for binding to POPG liposomes” value (shortened to “Partition coefficient (Kp) for binding”) in data set [1] is 2.7 × 10^5.

Consider VSTx1 K8A (peptide), for which, in data set [2], the percent decrease in binding against wild-type VSTx1 came to 20%.

In the case of VSTx1 W7A (peptide), the percent decrease in binding against wild-type VSTx1 in data set [2] was 58%.

With `CSCC[C@@H]1NC(=O)[C@H](Cc2ccccc2)NC(=O)[C@H](CCCCN)NC(=O)CNC(=O)[C@@H](NC(=O)[C@H](CCC(=O)O)NC(=O)[C@@H](N)CO)CSSC[C@@H]2NC(=O)[C@@H]3CSSC[C@@H](C(=O)N[C@H](C(=O)N[C@@H](CC(C)C)C(=O)N[C@@H](C)C(=O)N[C@@H](CO)C(=O)N4CCC[C@H]4C(=O)N[C@@H](Cc4ccccc4)C(=O)O)C(C)C)NC(=O)[C@H](Cc4c[nH]c5ccccc45)NC(=O)[C@H](CCCCN)NC(=O)[C@H](Cc4c[nH]c5ccccc45)NC(=O)[C@H](CCCNC(=N)N)NC(=O)[C@H](CO)NC(=O)[C@H](CO)NC(=O)[C@H](CSSC[C@H](NC(=O)[C@H](C)NC(=O)[C@H](Cc4c[nH]c5ccccc45)NC1=O)C(=O)N[C@@H](CCCCN)C(=O)N[C@@H](CC(N)=O)C(=O)N[C@@H](CO)C(=O)N[C@@H](CC(N)=O)C(=O)N[C@@H](CC(=O)O)C(=O)N3)NC(=O)[C@H](C(C)C)NC(=O)[C@H](CC(C)C)NC(=O)[C@H](CC(=O)O)NC(=O)[C@H](CCCCN)NC2=O` [K8A] (H-SECGKFMWACKNSNDCCKDLVCSSRWKWCVLASPF-OH; disulfide 3-17, 10-22, 16-29), in data set [1], the “Partition coefficient (Kp) for binding” value is given as 0.38 × 10^5.

Take `CSCC[C@@H]1NC(=O)[C@H](Cc2ccccc2)NC(=O)[C@H](CCCCN)NC(=O)CNC(=O)[C@@H](NC(=O)[C@H](CCC(=O)O)NC(=O)[C@@H](N)CO)CSSC[C@@H]2NC(=O)[C@@H]3CSSC[C@@H](C(=O)N[C@H](C(=O)N[C@@H](C)C(=O)N[C@@H](C)C(=O)N[C@@H](CO)C(=O)N4CCC[C@H]4C(=O)N[C@@H](Cc4ccccc4)C(=O)O)C(C)C)NC(=O)[C@H](Cc4c[nH]c5ccccc45)NC(=O)[C@H](CCCCN)NC(=O)[C@H](Cc4c[nH]c5ccccc45)NC(=O)[C@H](CCCNC(=N)N)NC(=O)[C@H](CO)NC(=O)[C@H](CO)NC(=O)[C@H](CSSC[C@H](NC(=O)[C@H](CCCCN)NC(=O)[C@H](Cc4c[nH]c5ccccc45)NC1=O)C(=O)N[C@@H](CCCCN)C(=O)N[C@@H](CC(N)=O)C(=O)N[C@@H](CO)C(=O)N[C@@H](CC(N)=O)C(=O)N[C@@H](CC(=O)O)C(=O)N3)NC(=O)[C@H](C(C)C)NC(=O)[C@H](CC(C)C)NC(=O)[C@H](CC(=O)O)NC(=O)[C@H](CCCCN)NC2=O` [L30A] (H-SECGKFMWKCKNSNDCCKDLVCSSRWKWCVAASPF-OH; disulfide 3-17, 10-22, 16-29): the “Partition coefficient (Kp) for binding” value in data set [1] is 0.55 × 10^5.

On to `CSCC[C@@H]1NC(=O)[C@H](Cc2ccccc2)NC(=O)[C@H](CCCCN)NC(=O)CNC(=O)[C@@H](NC(=O)[C@H](CCC(=O)O)NC(=O)[C@@H](N)CO)CSSC[C@@H]2NC(=O)[C@@H]3CSSC[C@@H](C(=O)N[C@H](C(=O)N[C@@H](CC(C)C)C(=O)N[C@@H](C)C(=O)N[C@@H](CO)C(=O)N4CCC[C@H]4C(=O)N[C@@H](Cc4ccccc4)C(=O)O)C(C)C)NC(=O)[C@H](Cc4c[nH]c5ccccc45)NC(=O)[C@H](CCCCN)NC(=O)[C@H](Cc4c[nH]c5ccccc45)NC(=O)[C@H](CCCNC(=N)N)NC(=O)[C@H](CO)NC(=O)[C@H](CO)NC(=O)[C@H](CSSC[C@H](NC(=O)[C@H](CCCCN)NC(=O)[C@H](C)NC1=O)C(=O)N[C@@H](CCCCN)C(=O)N[C@@H](CC(N)=O)C(=O)N[C@@H](CO)C(=O)N[C@@H](CC(N)=O)C(=O)N[C@@H](CC(=O)O)C(=O)N3)NC(=O)[C@H](C(C)C)NC(=O)[C@H](CC(C)C)NC(=O)[C@H](CC(=O)O)NC(=O)[C@H](CCCCN)NC2=O` [W7A] (H-SECGKFMAKCKNSNDCCKDLVCSSRWKWCVLASPF-OH; disulfide 3-17, 10-22, 16-29), for which the “Partition coefficient (Kp) for binding” value in data set [1] is 0.77 × 10^5.

Take `CSCC[C@@H]1NC(=O)[C@H](Cc2ccccc2)NC(=O)[C@H](CCCCN)NC(=O)CNC(=O)[C@@H](NC(=O)[C@H](CCC(=O)O)NC(=O)[C@@H](N)CO)CSSC[C@@H]2NC(=O)[C@@H]3CSSC[C@@H](C(=O)N[C@H](C(=O)N[C@@H](CC(C)C)C(=O)N[C@@H](C)C(=O)N[C@@H](CO)C(=O)N4CCC[C@H]4C(=O)N[C@@H](Cc4ccccc4)C(=O)O)C(C)C)NC(=O)[C@H](Cc4c[nH]c5ccccc45)NC(=O)[C@H](CCCCN)NC(=O)[C@H](Cc4c[nH]c5ccccc45)NC(=O)[C@H](C)NC(=O)[C@H](CO)NC(=O)[C@H](CO)NC(=O)[C@H](CSSC[C@H](NC(=O)[C@H](CCCCN)NC(=O)[C@H](Cc4c[nH]c5ccccc45)NC1=O)C(=O)N[C@@H](CCCCN)C(=O)N[C@@H](CC(N)=O)C(=O)N[C@@H](CO)C(=O)N[C@@H](CC(N)=O)C(=O)N[C@@H](CC(=O)O)C(=O)N3)NC(=O)[C@H](C(C)C)NC(=O)[C@H](CC(C)C)NC(=O)[C@H](CC(=O)O)NC(=O)[C@H](CCCCN)NC2=O` [R24A] (H-SECGKFMWKCKNSNDCCKDLVCSSAWKWCVLASPF-OH; disulfide 3-17, 10-22, 16-29): the “Partition coefficient (Kp) for binding” value in data set [1] is listed as 0.11 × 10^5.
